# Results taken from patent US12492193B2, “Pyrazole derivatives for the treatment of cystic fibrosis” (Fondazione Istituto Italiano Di Tecnologia, priority 2017, dated 2025).
# Molecular target: T1, mutant CFTR (Homo sapiens, UniProt P13569, DEL508-508)
# T1 construct: expressed in transfected cells
# Assay: Fluorescence (HS-YFP) assay for CFTR activity, corrector assay
# Format: cell-based
# Conditions: CFBE41o- and FRT cells with stable expression of mutant CFTR, 24 h compound treatment
# Outline: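 Corrector activity: 24 h compound treatment of HS-YFP/mutant-CFTR CFBE41o- or FRT cells, followed by 30 min forskolin 20 μM + genistein 50 μM at 37° C. Iodide influx (100 mM final) was tracked as fluorescence quenching, with dF/dt extrapolated by exponential fitting; EC50 values derived.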
# T1 sequence (P13569 with tags, fused parts or gaps DEL508-508): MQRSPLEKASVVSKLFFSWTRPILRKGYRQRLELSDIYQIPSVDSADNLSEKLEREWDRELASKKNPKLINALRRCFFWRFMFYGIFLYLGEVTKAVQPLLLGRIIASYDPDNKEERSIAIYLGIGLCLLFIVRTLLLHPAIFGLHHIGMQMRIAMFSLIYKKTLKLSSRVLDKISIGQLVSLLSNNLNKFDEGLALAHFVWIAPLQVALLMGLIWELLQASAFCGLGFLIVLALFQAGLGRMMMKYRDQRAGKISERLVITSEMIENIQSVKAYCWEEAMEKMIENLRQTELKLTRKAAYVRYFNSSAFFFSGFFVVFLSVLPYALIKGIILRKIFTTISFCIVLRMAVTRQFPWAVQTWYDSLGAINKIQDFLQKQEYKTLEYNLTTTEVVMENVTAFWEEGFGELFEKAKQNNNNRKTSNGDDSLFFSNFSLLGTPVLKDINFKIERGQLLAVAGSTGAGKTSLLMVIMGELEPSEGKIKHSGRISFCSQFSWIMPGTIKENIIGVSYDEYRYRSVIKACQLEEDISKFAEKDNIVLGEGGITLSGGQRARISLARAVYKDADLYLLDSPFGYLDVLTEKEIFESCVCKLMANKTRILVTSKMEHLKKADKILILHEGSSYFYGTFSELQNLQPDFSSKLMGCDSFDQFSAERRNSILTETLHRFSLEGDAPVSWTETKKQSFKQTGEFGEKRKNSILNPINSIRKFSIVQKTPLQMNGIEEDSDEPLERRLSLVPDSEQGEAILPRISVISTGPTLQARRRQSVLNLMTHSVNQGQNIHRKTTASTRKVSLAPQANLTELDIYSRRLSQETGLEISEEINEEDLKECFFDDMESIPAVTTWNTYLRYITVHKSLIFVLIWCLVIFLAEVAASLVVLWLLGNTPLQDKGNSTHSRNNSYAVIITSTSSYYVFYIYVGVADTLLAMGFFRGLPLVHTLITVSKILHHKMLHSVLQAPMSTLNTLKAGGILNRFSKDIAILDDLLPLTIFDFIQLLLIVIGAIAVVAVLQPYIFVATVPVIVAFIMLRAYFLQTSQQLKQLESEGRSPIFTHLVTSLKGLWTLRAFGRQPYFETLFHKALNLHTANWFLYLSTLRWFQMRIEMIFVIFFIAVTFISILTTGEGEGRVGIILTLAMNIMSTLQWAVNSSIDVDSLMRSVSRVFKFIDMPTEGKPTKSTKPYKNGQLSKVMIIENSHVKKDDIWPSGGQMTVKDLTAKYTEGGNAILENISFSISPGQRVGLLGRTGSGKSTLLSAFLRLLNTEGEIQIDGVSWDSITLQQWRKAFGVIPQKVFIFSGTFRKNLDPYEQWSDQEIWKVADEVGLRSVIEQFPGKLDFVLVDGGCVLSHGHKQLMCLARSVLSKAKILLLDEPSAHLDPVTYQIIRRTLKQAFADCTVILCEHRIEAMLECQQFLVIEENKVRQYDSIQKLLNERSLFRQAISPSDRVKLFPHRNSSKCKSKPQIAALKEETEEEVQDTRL
row,EC50 [nM],Structure (SMILES)
1,< 1000,"Cc1nn(-c2cccc(C(=O)N(C)c3ccc4c(c3)OCO4)c2)c([C@H](O)c2ccccc2)c1Cl (racemic) [compound 109, N-(1,3-benzodioxol-5-yl)-3-[4-chloro-5-[(rac)-hydroxy(phenyl)methyl]-3-methyl-pyrazol-1-yl]-N-methyl-benzamide]"
2,> 2000,"Cc1nn(-c2cccc(C(=O)Nc3ccc4oc(C(C)C)nc4c3)c2)c(C)c1Cl [Int-061, 3-(4-Chloro-3,5-dimethyl-pyrazol-1-yl)-N-(2-isopropyl-1,3-benzoxazol-5-yl)benzamide]"
3,< 1000,"COC(=O)c1ccc(COc2c(Cl)c(C(F)(F)F)nn2-c2cccc(C(=O)N(C)c3cc4c(cc3Cl)OCO4)c2)cc1 [compound 156, Methyl 4-[[4-chloro-2-[3-[(6-chloro-1,3-benzodioxol-5-yl)-methyl-carbamoyl]phenyl]-5-(trifluoromethyl)pyrazol-3-yl]oxymethyl]benzoate]"
4,> 2000,"Cc1c(Cl)c(C(F)(F)F)nn1-c1cccc(C(=O)Nc2cc3c(cc2C(=O)O)OCO3)c1 [Int-178, 6-[[3-[4-chloro-5-methyl-3-(trifluoromethyl)pyrazol-1-yl]benzoyl]amino]-1,3-benzodioxole-5-carboxylic acid]"
5,1000 to 2000,"Cc1nc2ccc(NC(=O)c3cccc(-n4nc(C(F)(F)F)c(Cl)c4C)c3)cc2o1 [compound 120, 3-[4-Chloro-5-methyl-3-(trifluoromethyl)pyrazol-1-yl]-N-(2-methyl-1,3-benzoxazol-6-yl)benzamide]"
6,< 1000,"Cc1nc2cc(F)c(N(C)C(=O)c3cccc(-n4nc(C(F)(F)F)c(Cl)c4OCc4ccc(C(=O)O)cc4)c3)cc2o1 [compound 212, 4-[[4-Chloro-2-[3-[(5-fluoro-2-methyl-1,3-benzoxazol-6-yl)-methyl-carbamoyl]phenyl]-5-(trifluoromethyl)pyrazol-3-yl]oxymethyl]benzoic acid]"
7,> 2000,"Cc1nn(-c2cc(C(=O)N(C)c3ccc4c(c3)OCO4)ccc2C(F)(F)F)c(C)c1Cl [compound 071, N-(1,3-Benzodioxol-5-yl)-3-(4-chloro-3,5-dimethyl-pyrazol-1-yl)-N-methyl-4-(trifluoromethyl)benzamide]"
8,1000 to 2000,"Cc1nc2ccc(N(C)C(=O)c3cccc(-n4nc(C(F)(F)F)c(Cl)c4C)c3)cc2s1 [compound 149, 3-[4-Chloro-5-methyl-3-(trifluoromethyl)pyrazol-1-yl]-N-methyl-N-(2-methyl-1,3-benzothiazol-6-yl)benzamide]"
9,< 1000,"COCc1c(Cl)c(C)nn1-c1cccc(C(=O)N(C)c2ccc3c(c2)OCO3)c1 [compound 107, N-(1,3-benzodioxol-5-yl)-3-[4-chloro-5-(methoxymethyl)-3-methyl-pyrazol-1-yl]-N-methyl-benzamide]"
10,< 1000,"CN(C(=O)c1cccc(-n2nc(C(F)(F)F)c(C=O)c2Oc2ccccc2)c1)c1ccc2c(c1)OCO2 [compound 180, N-(1,3-Benzodioxol-5-yl)-3-[4-formyl-5-phenoxy-3-(trifluoromethyl)pyrazol-1-yl]-N-methyl-benzamide]"
11,> 2000,"Cc1cc(C(F)(F)F)n(-c2cc(C(=O)N(C)c3ccc4c(c3)OCO4)ccn2)n1 [compound 169, N-(1,3-Benzodioxol-5-yl)-N-methyl-2-[3-methyl-5-(trifluoromethyl)pyrazol-1-yl]pyridine-4-carboxamide]"
12,> 2000,"Cc1c(Cl)c(C(F)(F)F)nn1-c1cccc(C(=O)Nc2ccc3c(c2)OCO3)c1 [compound 128, N-(1,3-Benzodioxol-5-yl)-3-[4-chloro-5-methyl-3-(trifluoromethyl)pyrazol-1-yl]benzamide]"
13,< 1000,"Cc1c(Cl)c(C(F)(F)F)nn1-c1cccc(C(=O)Nc2cc3c(cc2CO)OCO3)c1 [Int-167, 3-[4-chloro-5-methyl-3-(trifluoromethyl)pyrazol-1-yl]-N-[6-(hydroxymethyl)-1,3-benzodioxol-5-yl]benzamide]"
14,< 1000,"Cc1noc2cc(N(C)C(=O)c3cccc(-n4nc(C(F)(F)F)c(Cl)c4COc4ccc(C(=O)O)cc4)c3)ccc12 [compound 245, 4-[[4-Chloro-2-[3-[methyl-(3-methyl-1,2-benzoxazol-6-yl)carbamoyl]phenyl]-5-(trifluoromethyl)pyrazol-3-yl]methoxy]benzoic acid]"
15,> 2000,"Cc1nn(-c2cccc(C(=O)N(c3ccc4c(c3)OCCO4)C3CC3)c2)c(C)c1Cl [compound 030, 3-(4-Chloro-3,5-dimethyl-pyrazol-1-yl)-N-cyclopropyl-N-(2,3-dihydro-1,4-benzodioxin-6-yl)benzamide]"
16,< 1000,"CC(=O)c1c(Cl)c(C)nn1-c1cccc(C(=O)N(C)c2ccc3c(c2)OCO3)c1 [compound 116, 3-(5-Acetyl-4-chloro-3-methyl-pyrazol-1-yl)-N-(1,3-benzodioxol-5-yl)-N-methyl-benzamide]"

row,EC50 [nM],Structure (SMILES)
1,< 1000,"Cc1c(Cl)c(C(F)(F)F)nn1-c1cccc(C(=O)N(C)c2ccc3c(c2)OC(F)(F)O3)c1 [compound 095, 3-[4-Chloro-5-methyl-3-(trifluoromethyl)pyrazol-1-yl]-N-(2,2-difluoro-1,3-benzodioxol-5-yl)-N-methyl-benzamide]"
2,< 1000,"Cc1nn(-c2cccc(C(=O)N(C)c3cc4c(cc3Cl)OC(F)(F)O4)c2)c(C)c1Cl [compound 049, N-(6-Chloro-2,2-difluoro-1,3-benzodioxol-5-yl)-3-(4-chloro-3,5-dimethyl-pyrazol-1-yl)-N-methyl-benzamide]"
3,> 2000,"Cc1nn(-c2cccc(C(=O)N(C)c3ccccc3)c2)c(C)c1Cl [compound 007, 3-(4-Chloro-3,5-dimethyl-pyrazol-1-yl)-N-methyl-N-phenyl-benzamide]"
4,< 1000,"CCOC(=O)CCC(=O)N1CCC(Oc2cc(C(F)(F)F)nn2-c2cccc(C(=O)N(C)c3ccc4c(c3)OC(F)(F)O4)c2)CC1 [compound 260, Ethyl 4-[4-[2-[3-[(2,2-difluoro-1,3-benzodioxol-5-yl)-methyl-carbamoyl]phenyl]-5-(trifluoromethyl)pyrazol-3-yl]oxy-1-piperidyl]-4-oxo-butanoate]"
5,< 1000,"Cc1nc2ccc(N(C)C(=O)c3cccc(-n4nc(C(F)(F)F)c(Cl)c4COc4ccc(C(=O)O)cc4)c3)cc2o1 [compound 233, 4-[[4-Chloro-2-[3-[methyl-(2-methyl-1,3-benzoxazol-6-yl)carbamoyl]phenyl]-5-(trifluoromethyl)pyrazol-3-yl]methoxy]benzoic acid]"
6,< 1000,"CN(C(=O)c1cccc(-n2nc(C(F)(F)F)c(Cl)c2OCc2ccc(C(=O)O)cc2)c1)c1ccc2c(c1)OCO2 [compound 159, 4-[[2-[3-[1,3-Benzodioxol-5-yl(methyl)carbamoyl]phenyl]-4-chloro-5-(trifluoromethyl)pyrazol-3-yl]oxymethyl]benzoic acid]"
7,1000 to 2000,"Cc1c(Cl)c(C(F)(F)F)nn1-c1cccc(C(=O)N(C)c2ccc3cn(C)nc3c2)c1 [compound 122, 3-[4-Chloro-5-methyl-3-(trifluoromethyl)pyrazol-1-yl]-N-methyl-N-(2-methylindazol-6-yl)benzamide]"
8,< 1000,"CN(C(=O)c1cccc(-n2nc(C(F)(F)F)c(Cl)c2COc2cnc(C(=O)O)cn2)c1)c1ccc2c(c1)OC(F)(F)O2 [compound 226, 5-[[4-Chloro-2-[3-[(2,2-difluoro-1,3-benzodioxol-5-yl)-methyl-carbamoyl]phenyl]-5-(trifluoromethyl)pyrazol-3-yl]methoxy]pyrazine-2-carboxylic acid]"
9,> 2000,"Cc1nn(-c2cccc(C(=O)Nc3ccc4c(c3)OCO4)c2)c(C)c1Cl [Int-012, N-(1,3-Benzodioxol-5-yl)-3-(4-chloro-3,5-dimethyl-pyrazol-1-yl)benzamide]"
10,< 1000,"CC(C)Oc1c(Cl)c(C(F)(F)F)nn1-c1cccc(C(=O)N(C)c2ccc3c(c2)OCO3)c1 [compound 142, N-(1,3-Benzodioxol-5-yl)-3-[4-chloro-5-isopropoxy-3-(trifluoromethyl)pyrazol-1-yl]-N-methyl-benzamide]"
11,> 2000,"Cc1c(Cl)c(C(N)=O)nn1-c1cccc(C(=O)N(C)c2ccc3c(c2)OCO3)c1 [compound 074, 1-[3-[1,3-Benzodioxol-5-yl(methyl)carbamoyl]phenyl]-4-chloro-5-methyl-pyrazole-3-carboxamide]"
12,> 2000,"Cc1c(Cl)c(C(F)(F)F)nn1-c1cccc(C(=O)Nc2cc3c(cc2Cl)OCO3)c1 [compound 127, N-(6-Chloro-1,3-benzodioxol-5-yl)-3-[4-chloro-5-methyl-3-(trifluoromethyl)pyrazol-1-yl]benzamide]"
13,< 1000,"Cc1nc2cc(F)c(N(C)C(=O)c3cccc(-n4nc(C(F)(F)F)c(Cl)c4C)c3)cc2o1 [compound 154, 3-[4-Chloro-5-methyl-3-(trifluoromethyl)pyrazol-1-yl]-N-(5-fluoro-2-methyl-1,3-benzoxazol-6-yl)-N-methyl-benzamide]"
14,< 1000,"[2H]C([2H])([2H])N(C(=O)c1cccc(-n2nc(C(F)(F)F)c(Cl)c2COc2ccc(C(=O)OC(C)(C)C)cc2)c1)c1ccc2c(c1)OC(F)(F)O2 [compound 181, Tert-butyl 4-[[4-chloro-2-[3-[(2,2-difluoro-1,3-benzodioxol-5-yl)-(trideuteriomethyl)carbamoyl]phenyl]-5-(trifluoromethyl)pyrazol-3-yl]methoxy]benzoate]"
15,< 1000,"CN(C(=O)c1cccc(-n2nc(C(F)(F)F)c(Cl)c2OCC23CC(C(=O)O)(C2)C3)c1)c1ccc2c(c1)OC(F)(F)O2 [compound 258, 3-[[4-Chloro-2-[3-[(2,2-difluoro-1,3-benzodioxol-5-yl)-methyl-carbamoyl]phenyl]-5-(trifluoromethyl)pyrazol-3-yl]oxymethyl]bicyclo[1.1.1]pentane-1-carboxylic acid]"
16,> 2000,"Cc1c(Cl)c(C(F)(F)F)nn1-c1cccc(C(=O)N(C)c2cc3c(cc2C(=O)O)OCO3)c1 [compound 179, 6-[[3-[4-chloro-5-methyl-3-(trifluoromethyl)pyrazol-1-yl]benzoyl]-methyl-amino]-1,3-benzodioxole-5-carboxylic acid]"
